Data taken from US20260325654A1, “METHODS AND COMPOSITIONS FOR TARGETED PROTEIN DEGRADATION” (Ranok Therapeutics (Hangzhou) Co. Ltd., priority 2023, published 2026).
Where a name gives a salt, the structure may show the parent alone.

Key:
[1] = system: ASPC-1; assay: CellTiter-Glo Reagent cancer cell line proliferation assay, ASPC-1; type: cell-based; conditions: Homo sapiens, ASPC1; ASPC-1, KRAS(G12D) homozygous, 24 hr
Source text: (§1) The following cancer cell lines were employed: • AsPC-1 human pancreatic adenocarcinoma, homozygous KRAS(G12D), (ATCC, #CRL-1682); A-427 human lung carcinoma, heterozygous KRAS(G12D), (ATCC, #HTB-53); AGS human gastric adenocarcinoma, heterozygous KRAS(G12D), (ATCC, #CRL-1739); GP2D human colon adenocarcinoma, heterozygous KRAS(G12D), (Sigma Aldrich, 95090714); SW1990 human pancreatic adenocarcinoma, homozygous KRAS(G12D), (ATCC, #CRL2172); LU65A human lung giant cell carcinoma, heterozygous KRAS(G12C), (JCRB Cell Bank, #JCRB0054); NCIH727 human lung carcinoid, heterozygous KRAS(G12V), (ATCC, #CRL-5815); MKN1 human gastric adenosquamous carcinoma KRAS (wt), (JCRB Cell Bank, #JCRB0252). Cell lines were cultured according to ATCC, JCRB and Sigma Aldrich recommendations.
(§2) Cells were plated in 96-well tissue culture plates at 4,000 cells/well and incubated at 37° C./5% CO2 for 24 hr in 100 μl of media. 3-fold serial dilutions of each test compound were prepared ranging from 20 μM to 1.02 nM. Cells were then treated with test compounds at various concentrations with a final concentration of 0.5% DMSO/well, and then incubated at 37° C./5% CO2 for 24 hr. 100 μl of CellTiter-Glo® Reagent (Promega Corporation, Madison, WI) was added to each well and processed according manufacturer's protocol. Results were analyzed and IC50-values were calculated in GraphPad 7 software.

[2] = system: A427; assay: CellTiter-Glo Reagent cancer cell line proliferation assay, A427; type: cell-based; conditions: Homo sapiens, A-427; A427, KRAS(G12D) heterozygous, 24 hr
Source text: as §1, §2

[3] = system: AGS; assay: CellTiter-Glo Reagent cancer cell line proliferation assay, AGS; type: cell-based, human; conditions: Homo sapiens, 24 h, KRAS(G12D) heterozygous
Outline: (§3)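 Cells were seeded at 4,000 per well, grown 24 hr at 37° C./5% CO2, then exposed 24 hr to 3-fold dilutions from 20 μM to 1.02 nM (0.5% DMSO final). Viability was read with CellTiter-Glo luminescence, and IC50 values were calculated.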

[4] = system: GP2D; assay: CellTiter-Glo Reagent cancer cell line proliferation assay, GP2D; type: cell-based; conditions: Homo sapiens, KRAS(G12D) heterozygous, 24 hr
Outline: as §3

[5] = biological target: T1, KRAS(G12D) (Homo sapiens, UniProt P01116, G12D); assay: KRAS Western Blot Protein Degradation Assay, GP2D; type: cell-based; design: Cell lines SW1990 and GP2D that express KRAS(G12D); host or cells: GP2D; conditions: for Dmax: GP2d, read-out: WB data GP2D DMax; for DC50: read-out: WB data GP2D DC50, GP2D, KRAS degradation, 24 hr
Source text: as §1
(§4) Cell lines SW1990 and GP2D that express KRAS(G12D), LU65A that expresses KRAS(G12C), and NCIH727 that expresses KRAS(G12V) were seeded in 6- or 12-well tissue culture plates, and after 1 hr, test compounds were added at various concentrations and incubated at 37° C./5% CO2 for 24 hr. Cells were then washed with cold PBS, aspirated and cold RIPA buffer containing a protease/phosphatase inhibitor cocktail was added to lyse cells. After centrifugation, the total protein concentrations of cell lysates were determined using the BCA protein assay. Samples were normalized for equivalent protein concentrations, 5× SDS-PAGE loading buffer added and denatured at 100° C. for 10 min. 20 μl of each sample/well was loaded on a SDS-PAGE gel and electrophoresed for 20 min at 80 V, then 120 V for 1.5 hr. Gels were then electroblotted to nitrocellulose membranes using a wet-transfer method at 250 mA for 2.5 hr. Membranes were incubated with blocking buffer for 1 hr and washed 3 times with TBST for 5 min. Membranes were then incubated with anti-KRAS (Sigma-Aldrich, #SAB1404011) and anti-β-Actin monoclonal antibodies (Cell Signaling Technology, #3700) diluted in blocking buffer at 4° C. overnight per the manufacturer's recommendations. After washing 3 times, blots were incubated with appropriately labeled secondary antibodies for 1 hr at room temperature and washed again. Fluorescence imaging and quantitation was performed using a LI-COR Odyssey. Results was analyzed using GraphPad Prism 7 software. Compound concentrations that induced KRAS degradation (DC50 and DCmax) were calculated using GraphPad Prism 7 software.
Target sequence in this assay (P01116 1-185 isoform P01116-2 G12D limits assumed): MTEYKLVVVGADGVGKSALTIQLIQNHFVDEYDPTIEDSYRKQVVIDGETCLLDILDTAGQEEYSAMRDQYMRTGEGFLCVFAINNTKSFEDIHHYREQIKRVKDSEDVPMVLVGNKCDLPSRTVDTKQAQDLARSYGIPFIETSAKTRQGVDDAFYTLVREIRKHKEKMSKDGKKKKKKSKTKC

[6] = system: SW1990; assay: CellTiter-Glo Reagent cancer cell line proliferation assay, SW1990; type: cell-based; conditions: Homo sapiens; SW1990, KRAS(G12D) homozygous, 24 hr
Source text: as §1, §2

[7] = biological target: T1, KRAS(G12D); assay: cell-based; type: cell-based; design: Cell lines SW1990 and GP2D that express KRAS(G12D); host or cells: SW1990; conditions: for Dmax: SW1990, read-out: WB data SW1990 DMax; for DC50: read-out: WB data SW1990 DC50, SW1990, KRAS degradation, 24 hr
Description: Cell lines were cultured according to ATCC, JCRB and Sigma Aldrich recommendations.
as §4, with “Cells” for “Cell lines SW1990 and GP2D that express KRAS(G12D), LU65A that expresses KRAS(G12C), and NCIH727 that expresses KRAS(G12V) were seeded in 6- or 12-well tissue culture plates, and after 1 hr, test compounds were added at various concentrations and incubated at 37° C./5% CO2 for 24 hr. Cells”
Target sequence in this assay (P01116 1-188 isoform P01116-2 G12D): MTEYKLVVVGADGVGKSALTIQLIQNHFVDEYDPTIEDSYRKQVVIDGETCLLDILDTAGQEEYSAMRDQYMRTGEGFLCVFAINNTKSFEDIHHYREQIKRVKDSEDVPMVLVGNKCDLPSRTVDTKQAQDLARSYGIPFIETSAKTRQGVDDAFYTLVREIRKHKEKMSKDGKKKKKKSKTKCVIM

| SMILES | IC50 [3] [nM] | IC50 [4] [nM] | Dmax [5] [%] | DC50 [5] [nM] | IC50 [6] [nM] | Dmax [7] [%] | DC50 [7] [nM] | IC50 [1] [nM] | IC50 [2] [nM] |
| --- | --- | --- | --- | --- | --- | --- | --- | --- | --- |
| O=C1CCC(N2C(=O)c3ccc(CN4CCN([C@H]5CN6CCCC6(COc6nc(N7CC8CCC(C7)N8)c7cnc(-c8cc(O)cc9ccccc89)c(F)c7n6)C5)CC4)cc3C2=O)C(=O)N1 (some centres unmarked) [Compound 20] | > 1000 | – | – | – | – | – | – | > 1000 | > 1000 |
| C#Cc1cccc2cccc(-c3ncc4c(N5CC6CCC(C5)N6)nc(OC[C@H]5C[C@@H](N6CCN(CC7CCC(Nc8ccc9c(c8)C(=O)N(C8CCC(=O)NC8=O)C9=O)CC7)CC6)CN5C)nc4c3F)c12 (some centres unmarked) [Compound 47] | > 1000 | – | – | – | > 1000 | – | – | > 1000 | > 1000 |
| [2H]C([2H])([2H])Oc1nc(-c2cc(O)cc3ccc(F)c(C#C)c23)c(F)c2nc(OCC3(CN4CCN(CC5CCN(c6ccc7c(c6)CN(C6CCC(=O)NC6=O)C7=O)CC5)CC4)CC3)nc(N3CC4CCC(C3)N4CC(F)(F)F)c12 (centres unmarked) [Compound 97] | 100 to 1000 | 100 to 1000 | 10 to 50 | > 1000 | – | – | – | – | – |
| C#Cc1cccc2cc(O)cc(-c3ncc4c(N5CC6CCC(C5)N6)nc(OCC5(CN6CCN(C(=O)C7CCN(c8ccc9c(c8)CN(C8CCC(=O)NC8=O)C9=O)CC7)CC6)CC5)nc4c3F)c12 (centres unmarked) [Compound 58] | < 100 | – | – | – | 100 to 1000 | – | – | 100 to 1000 | > 1000 |
| C#Cc1c(F)ccc2cc(O)cc(-c3ncc4c(N5CC6CCC(C5)N6CC#N)nc(OCC5(CN6CCN(CC7CCN(c8ccc9c(c8)CN(C8CCC(=O)NC8=O)C9=O)CC7)CC6)CC5)nc4c3F)c12 (centres unmarked) [Compound 101] | < 100 | < 100 | > 50 | < 100 | – | – | – | – | – |
| C#Cc1cccc2cc(O)cc(-c3ncc4c(N5CC6CCC(C5)N6C(=O)C(F)(F)F)nc(OCC5(CN6CCN(CC7CCN(c8ccc9c(c8)CN(C8CCC(=O)NC8=O)C9=O)CC7)CC6)CC5)nc4c3F)c12 (centres unmarked) [Compound 57] | < 100 | – | – | – | 100 to 1000 | 10 to 50 | > 1000 | 100 to 1000 | 100 to 1000 |
| CN1C[C@H](N2CCC(C(=O)NCCOCCOc3ccc4c(c3)C(=O)N(C3CCC(=O)NC3=O)C4=O)CC2)C[C@@H]1COc1nc(N2CC3CCC(C2)N3)c2cnc(-c3cc(O)cc4ccccc34)c(F)c2n1 (some centres unmarked) [Compound 24] | > 1000 | – | – | – | – | – | – | – | > 1000 |
| C#Cc1c(F)ccc2cc(O)cc(-c3ncc4c(N5CC6CCC(C5)N6)nc(OCC5(CN6CCN(CC#Cc7ccc8c(c7)CN(C7CCC(=O)NC7=O)C8=O)CC6)CC5)nc4c3F)c12 (centres unmarked) [Compound 89] | < 100 | < 100 | – | – | 100 to 1000 | 10 to 50 | > 1000 | – | – |
| C#Cc1c(F)ccc2cc(O)cc(-c3ncc4c(N5CC6CCC(C5)N6)nc(OCC5(CN6CCN(CC7CCN(c8ccc9c(=O)n(C%10CCC(=O)NC%10=O)ncc9c8)CC7)CC6)CC5)nc4c3F)c12 (centres unmarked) [Compound 88] | < 100 | < 100 | – | – | < 100 | 10 to 50 | > 1000 | – | – |
| [2H]C([2H])([2H])Oc1nc(-c2cc(O)cc3ccc(F)c(C#C)c23)c(F)c2nc(OCC3(CN4CCN(CC5CCN(c6ccc7c(c6)CN(C6CCC(=O)NC6=O)C7=O)CC5)CC4)CC3)nc(N3CC4CCC(C3)N4CC(C)C)c12 (centres unmarked) [Compound 96] | > 1000 | 100 to 1000 | 10 to 50 | > 1000 | – | – | – | – | – |

Further lines, with some results ahead:

| IC50 [3] [nM] | IC50 [4] [nM] | Dmax [5] [%] | DC50 [5] [nM] | IC50 [6] [nM] | Dmax [7] [%] | DC50 [7] [nM] | SMILES | IC50 [1] [nM] | IC50 [2] [nM] |
| --- | --- | --- | --- | --- | --- | --- | --- | --- | --- |
| 100 to 1000 | < 100 | < 10 | > 1000 | – | – | – | O=CO.[2H]C([2H])([2H])Oc1nc(-c2cc(O)cc3ccc(F)c(C#C)c23)c(F)c2nc(OCC3(CN4CCN(CC5CCN(c6ccc7c(c6)CN(C6CCC(=O)NC6=O)C7=O)CC5)CC4)CC3)nc(N3CC4CCC(C3)N4CCC#N)c12 (centres unmarked) [Compound 95] | – | – |
| < 100 | < 100 | – | – | < 100 | 10 to 50 | > 1000 | C#Cc1c(F)ccc2cc(O)cc(-c3ncc4c(N5C[C@H]6CC[C@@H](C5)N6)nc(OCC5(CN6CC(C#Cc7ccc8c(c7)CN(C7CCC(=O)NC7=O)C8=O)C6)CC5)nc4c3F)c12 (stereo partly drawn) [Compound 90, 3-(5-((1-((1-(((4-((1R,5S)-3,8-diazabicyclo[3.2.1]octan-3-yl)-7-(8-ethynyl-7-fluoro-3-hydroxynaphthalen-1-yl)-8-fluoropyrido[4,3-d]pyrimidin-2-yl)oxy)methyl)cyclopropyl)methyl)azetidin-3-yl)ethynyl)-1-oxoisoindolin-2-yl) piperidine-2,6-dione formate] | – | – |
| < 100 | < 100 | > 50 | < 100 | – | – | – | O=CO.[2H]C([2H])([2H])Oc1nc(-c2cc(O)cc3ccc(F)c(C#C)c23)c(F)c2nc(OCC3(CN4CCN(CC5CCN(c6ccc7c(c6)CN(C6CCC(=O)NC6=O)C7=O)CC5)CC4)CC3)nc(N3CC4CCC(C3)N4CC#N)c12 (centres unmarked) [Compound 94] | – | – |
| < 100 | < 100 | > 50 | < 100 | – | – | – | C#Cc1c(F)ccc2cc(O)cc(-c3nc(OC)c4c(N5CC6CCC(C5)N6CC#N)nc(OCC5(CN6CCN(CC7CCN(c8ccc9c(c8)CN(C8CCC(=O)NC8=O)C9=O)CC7)CC6)CC5)nc4c3F)c12 (centres unmarked) [Compound 100, 2-(3-(2-((1-((4-((1-(2-(2,6-dioxopiperidin-3-yl)-1-oxoisoindolin-5-yl)piperidin-4-yl)methyl)piperazin-1-yl)methyl)cyclopropyl)methoxy)-7-(8-ethynyl-7-fluoro-3-hydroxynaphthalen-1-yl)-8-fluoro-5-methoxypyrido[4,3-d]pyrimidin-4-yl)-3,8-diazabicyclo[3.2.1]octan-8-yl) acetonitrile formate] | – | – |
| < 100 | < 100 | > 50 | < 100 | – | – | – | O=CO.[2H]C([2H])([2H])Oc1nc(-c2cc(O)cc3ccc(F)c(C#C)c23)c(F)c2nc(OCC3(CN4CCN(CC5CCN(c6ccc7c(c6)CN(C6CCC(=O)NC6=O)C7=O)CC5)CC4)CC3)nc(N3CC4CCC(C3)N4CCO)c12 (centres unmarked) [Compound 98] | – | – |
